The text below walks through data of patent publication US20050119330A1, “Use of antiproliferative agents in the treatment and prevention of pulmonary proliferative vascular diseases” (priority 2003, published 2005).

Experiment [1] deals with pneumonectomized, monocrotaline-treated rats. In words: Chronic model of pulmonary arterial hypertension (monocrotaline four weeks after pneumonectomy), rescue treatment. The class given is in vivo. Here is the method:
Methods: Rats were treated as described in Example 1, except that monocrotaline was administered four weeks after pneumonectomy. Pulmonary hypertension developed at Week 8 and increased in severity until death at Week 13. […] Hemodynamic measurements were performed on control and treated rats in order to determine mean arterial pressures and pressures at the right ventricle.
A quantitative analysis of neointimal luminal obstruction on 25 consecutive small pulmonary arteries from each rat in Group N, PMV0w, PMV2w, PMS2w, PMS6w, and PMS13w was performed (FIGS. 10A-10D). Histological samples were prepared and stained using Elastin-van-Geison (EVG) stain, ×600. Vessels were assessed for neointimal proliferative lesions and scored: Grade 0 for no evidence of neointimal formation, Grade 1 for less than 50% luminal occlusion, Grade 2 for >50% luminal occlusion.

Experiment [2] shares this test system. As to the kind of experiment: Acute model of pulmonary arterial hypertension (left pneumonectomy, monocrotaline on Day 7). The class given is in vivo, Sprague-Dawley rats. As to conditions: for right ventricular systolic pressure (RVSP): Day 35; for mean pulmonary arterial pressure (mPAP): measured Day 35; for vascular occlusion score (VOS), 0 to 2: 25 consecutive small pulmonary arteries per rat. The protocol:
Methods: On Day, 0, thirty pathogen-free 13-week-old, male Sprague-Dawley rats (350-400 g) were intubated, anesthetized with halothane (0.5%), and then underwent left pneumonectomy via thoracotomy as described in Faul, J. L. et al. (2000) Am. J. Respir. Crit. Care Med. 162:2252-2258; and Nishimura, R. et al., (2001) Am. J. Respir. Crit. Care Med. 163:498-502. On Day 7, rats received a single subcutaneous injection in the right hind limb of the plant alkaloid monocrotaline (60 mg/kg; Sigma, St. Louis, Mo.). Rats that were not subjected to any treatment were also included in the study (“normal” or “N”).
Twenty-four rats received monocrotaline (60 mg/kg s.c.), seven days after pneumonectomy. […] Rats that were not subjected to any treatment were also included in the study (“normal” or “N”). Rats in the control group, PMV (n=6), received vehicle (V) by oral gavage every day, beginning on Day 5.
On Day 35, rats underwent pulmonary artery catheterization for measurements of mean pulmonary artery pressures and right ventricular systolic pressures. Mean arterial, mean pulmonary arterial and right ventricular systolic blood pressures (mPAP and RVSP, respectively) were measured as described by Faul et al. and Nishimura et al. After exsanguination, the right lung, right ventricle and left ventricle plus septum were collected for histology. The organs were weighed and preserved and the RV/LV&S ratios determined. Organs fixed in formalin were embedded in paraffin, cut in 3 micron sections and stained with hematoxylin and eosin, and with elastin-von Geison stain.
The severity of neointimal formation was scored on elastin-van Geison (EVG)-stained lung sections: the absence of neointimal formation equals 0; the presence of neointimal proliferation causing less than 50% luminal narrowing equals 1; luminal narrowing greater than 50% equals 2. Immunohistochemistry was performed on formalin-fixed, paraffin-embedded lung sections using antibodies to α-smooth-muscle actin (Dako, 1:30 dilution, linked to alkaline phosphatase), and CD31, a monoclonal antibody with specificity for endothelial cells lining the vascular lumen (Dako, 1:40 dilution, detected using avidin-biotin-peroxidase method). Samples of right lung were immediately placed in 2.5% paraformaldehyde and routinely processed for transmission electron microscopy. Reverse-transcription PCR was used to amplify portions of the rat endothelial nitric oxide synthase gene (eNOS, GenBank U02534) and actin B (GenBank V01217) from rat lung. Primer sequences for eNOS were: 5′-[…]-3′ (SEQ ID NO:1) and 5′-[…]-3′ (SEQ ID NO:2). Five micrograms of total lung RNA were reverse-transcribed and amplified by PCR as described in Aoki, Y., et al. (1997) Am. J. Physiol. 272:L272-284. Endothelial NOS protein (60 μg) was analyzed by Western immunoblotting as described in Zhao, G. et al. (2000) Am. J. Physiol. 279:L958-L966, using anti-eNOS primary antibody (Santa Cruz sc-8311).

The test system of experiment [3] is pneumonectomized, monocrotaline treated rats. As to conditions: Faul et al. 2000; Nishimura 2001; cited from earlier work.
Setting [4] is: Group PMS2w: two weeks of treatment.
Where [5] appears, read: Group PMS6w: 6 weeks of treatment.
[6] abbreviates: after 13 weeks of simvastatin treatment.

Values joined by “and” are separate entries in the source; they are usually repeats but may differ in a detail not shown here. Equal values may be shown once.

With `CCC(C)(C)C(=O)O[C@H]1C[C@@H](C)C=C2C=C[C@H](C)[C@H](CC[C@@H]3C[C@@H](O)CC(=O)O3)[C@H]21` [simvastatin], the “mean pulmonary arterial pressure (mPAP)” value in experiment [1] (Group PMS2w: 2 mg/kg/day for two weeks from Week 11) is 36±2 mm Hg; in experiment [1] (Group PMS6w: 2 mg/kg/day for 6 weeks from Week 11), 24±3 mm Hg; in experiment [1] (setting [6]), 22±3 mm Hg; in experiment [2] (Group PMS5-14: simvastatin 2 mg/kg/day oral gavage Days 5-14), 44±4 mm Hg; in experiment [2] (Group PMS5-35: simvastatin 40 mg/kg/day oral gavage Days 5-35) it was 27±3 mm Hg and 27 mm Hg; in experiment [2] (Group PMS15-35: simvastatin 40 mg/kg/day oral gavage Days 15-35), 38±3 mm Hg. In addition, the “right ventricular systolic pressure (RVSP)” value in experiment [1] (setting [4]) is given as 53±7 mmHg; in experiment [1] (setting [5]), 34±3 mmHg; in experiment [1] (setting [6]), 30±3 mmHg; in experiment [2] (Group PMS5-14: 2 mg/kg/day oral gavage Days 5-14), 66±12 mm Hg; in experiment [2] (Group PMS5-35: 40 mg/kg/day oral gavage Days 5-35), 37±4 mm Hg; in experiment [2] (Group PMS15-35: 40 mg/kg/day oral gavage Days 15-35), 54±10 mm Hg. Besides, the “vascular occlusion score (VOS), 0 to 2” value was 1.34 in experiment [1] (setting [4]); 0.83 in experiment [1] (setting [5]); 0.65 in experiment [1] (Group PMS13w: 13 weeks of treatment); 0.78±0.40 in experiment [2] (Group PMS5-14); 1.5 and 0.59±0.46 in experiment [2] (Group PMS5-35); 0.93±0.38 in experiment [2] (Group PMS15-35). The compound also displayed a survival in experiment [1] (simvastatin 2 mg/kg/day oral gavage from Week 11, no mortality up to Week 23, vehicle 0% survival at Week 15) of 100%.
For `CC(C)[C@]12O[C@H]1[C@@H]1O[C@]13[C@]1(O[C@H]1C[C@H]1C4=C(CC[C@@]13C)C(=O)OC4)[C@@H]2O` [triptolide], the “development of pulmonary arterial hypertension and neointimal formation” value in experiment [3] was “could inhibit the development of pulmonary arterial hypertension and neointimal formation”.
